{"source": "patent US20070059364A1", "about": "“Active substance combination comprising a compound with npy receptor affinity and a compound with 5-ht6 receptor affinity” (Laboratorios Del Dr. Esteve S.A., priority 2003, published 2007)", "data": [{"values": [{"smiles": "Cl.O=C(CN1CCC(N2C(=O)OCc3ccccc32)CC1)Nc1ccc2c(c1)CCC2=O", "melting point": "272 to 277 °C"}, {"smiles": "Cl.O=C(CN1CCC(N2C(=O)OCc3ccccc32)CC1)Nc1ccc2c(c1)CCC2", "melting point": "230 to 231 °C"}, {"smiles": "CC(C(=O)Nc1ccc2c(c1)-c1ccccc1C2=O)N1CCC(N2C(=O)OCc3ccccc32)CC1.Cl", "note": "(centres unmarked)", "melting point": "242 to 252 °C"}, {"smiles": "CN1CC=C(c2c[nH]c3ccc(NS(=O)(=O)c4cccc5ccccc45)cc23)CC1", "melting point": "244 to 245 °C (dec.)"}, {"smiles": "Cc1ccc2c(c1)COC(=O)N2C1CCN(CC(=O)Nc2ccc3c(c2)-c2ccccc2C3=O)CC1", "melting point": "237 to 239 °C"}, {"smiles": "CN(C)CCn1ccc2cc(NS(=O)(=O)/C=C/c3ccccc3)ccc21", "melting point": "108 to 111 °C"}, {"smiles": "CCn1c2ccccc2c2cc(NC(=O)CN3CCC(N4C(=O)OCc5cc(C)ccc54)CC3)ccc21.Cl", "melting point": "247 to 252 °C"}, {"smiles": "Cc1ccc2c(c1)COC(=O)N2C1CCN(CC(=O)Nc2ccc(C3CCCCC3)cc2)CC1", "melting point": "155 to 157 °C"}, {"smiles": "Cc1ccc2c(c1)COC(=O)N2C1CCN(CC(=O)Nc2ccc(C3CCCCC3)cc2)CC1.Cl", "melting point": "242 to 246 °C"}, {"smiles": "Cc1ccc2c(c1)COC(=O)N2C1CCN(CC(=O)Nc2ccc(C(=O)c3ccccc3)cc2)CC1.Cl", "melting point": "240 to 244 °C"}, {"smiles": "CN(C)CCc1c[nH]c2ccc(NS(=O)(=O)c3ccc(Oc4ccccc4)cc3)cc12", "melting point": "152 to 154 °C"}, {"smiles": "Cl.Cn1c2ccccc2c2cc(NC(=O)CN3CCC(N4C(=O)OCc5ccccc54)CC3)ccc21", "melting point": "191 to 193 °C"}, {"smiles": "Cl.O=C(CN1CCC(N2C(=O)OCc3ccccc32)CC1)Nc1ccc2c(c1)C(=O)c1ccccc1C2=O", "melting point": "280 to 282 °C"}, {"smiles": "CCN(CC)CCc1c[nH]c2ccc(N(CC)S(=O)(=O)c3ccc4ccccc4c3)cc12", "melting point": "49 to 50 °C"}, {"smiles": "CCN(c1ccccc1)c1ccc(NC(=O)CN2CCC(N3C(=O)OCc4ccccc43)CC2)cc1.Cl", "melting point": "254 to 257 °C"}, {"smiles": "Cc1c(S(=O)(=O)Nc2ccc3[nH]cc(CCN4CCOCC4)c3c2)sc2ccc(Cl)cc12", "melting point": "200 to 201 °C"}, {"smiles": "O=S(=O)(Nc1ccc2[nH]cc(CCN3CCOCC3)c2c1)c1cccc2ccccc12", "melting point": "218 to 220 °C"}, {"smiles": "Cl.O=C(CN1CCC(N2C(=O)OCc3ccccc32)CC1)Nc1ccc(Oc2ccccc2)cc1", "melting point": "242 to 248 °C"}, {"smiles": "CCN(CC)CCn1ccc2cc(NS(=O)(=O)c3ccc4ccccc4c3)ccc21", "melting point": "97 to 104 °C"}, {"smiles": "CCN(CC)CCc1c[nH]c2ccc(NS(=O)(=O)c3cccc4ccccc34)cc12", "melting point": "170 °C"}, {"smiles": "CN(C)CCn1ccc2cc(NS(=O)(=O)c3ccc4ccccc4c3)ccc21", "melting point": "54 to 57 °C"}, {"smiles": "CC(C)N(c1ccccc1)c1ccc(NC(=O)CN2CCC(N3C(=O)OCc4ccccc43)CC2)cc1.Cl", "melting point": "171 to 173 °C"}, {"smiles": "Cl.O=C(CCN1CCC(N2C(=O)OCc3ccccc32)CC1)Nc1ccc2c(c1)-c1ccccc1C2=O", "melting point": "240 to 242 °C"}, {"smiles": "CCn1c2ccccc2c2cc(NC(=O)CN3CCC(N4C(=O)OCc5cc(Cl)ccc54)CC3)ccc21.Cl", "melting point": "265 to 268 °C"}, {"smiles": "CCCN(CCC)CCc1c[nH]c2ccc(NS(=O)(=O)c3sc4ccc(Cl)cc4c3C)cc12", "melting point": "90 to 95 °C"}, {"smiles": "Cl.O=C(CN1CCC(N2C(=O)OCc3ccccc32)CC1)Nc1ccc(Cl)cc1", "melting point": "272 to 276 °C"}, {"smiles": "Cc1cc2cc(NS(=O)(=O)c3ccc4ccccc4c3)ccc2n1CCN(C)C", "melting point": "199 to 200 °C"}, {"smiles": "Cl.O=C(CN1CCC(N2C(=O)OCc3cc(Cl)ccc32)CC1)Nc1ccc(Cl)cc1", "melting point": "279 to 282 °C"}, {"smiles": "CCN(CC)CCc1c[nH]c2ccc(NS(=O)(=O)c3cccc4c(Cl)cccc34)cc12", "melting point": "154 to 156 °C"}, {"smiles": "Cl.O=C(CN1CCC(N2C(=O)OCc3cc(Cl)ccc32)CC1)Nc1ccc2c(c1)-c1ccccc1C2=O", "melting point": "245 to 249 °C"}, {"smiles": "CCN(CC)CCc1c[nH]c2ccc(NS(=O)(=O)/C=C/c3ccccc3)cc12", "melting point": "125 to 130 °C"}, {"smiles": "Cc1cccc2c1N(C1CCN(CC(=O)Nc3ccc4c(c3)-c3ccccc3C4O)CC1)C(=O)OC2.Cl", "note": "(centres unmarked)", "melting point": "207 to 212 °C"}, {"smiles": "CN1CCN(Cc2c[nH]c3ccc(NS(=O)(=O)/C=C/c4ccccc4)cc23)CC1", "melting point": "203 °C (dec.)"}, {"smiles": "Cl.O=C(CN1CCC(N2C(=O)OCc3ccccc32)CC1)Nc1ccc2c(c1)C(O)c1ccccc1-2", "note": "(centres unmarked)", "melting point": "> 225 °C (dec.)"}, {"smiles": "Cl.O=C(CN1CCC(N2C(=O)OCc3cc(Cl)ccc32)CC1)Nc1ccc2c(c1)-c1ccccc1C2O", "note": "(centres unmarked)", "melting point": "219 to 222 °C"}, {"smiles": "CCn1c2ccccc2c2cc(NC(=O)CN3CCC(N4C(=O)OCc5cccc(C)c54)CC3)ccc21.Cl", "melting point": "229 to 232 °C"}, {"smiles": "O=S(=O)(Nc1ccc2[nH]cc(CCN3CCOCC3)c2c1)c1ccc2ccccc2c1", "melting point": "85 to 90 °C"}, {"smiles": "Cc1cccc2c1N(C1CCN(CC(=O)Nc3ccc(C(F)(F)F)cc3)CC1)C(=O)OC2.Cl", "melting point": "264 to 274 °C"}, {"smiles": "Cc1cccc2c1N(C1CCN(CC(=O)Nc3ccccc3)CC1)C(=O)OC2.Cl", "melting point": "232 to 239 °C"}, {"smiles": "Cl.O=C(CN1CCC(N2C(=O)OCc3ccccc32)CC1)Nc1ccc(C(F)(F)F)cc1", "melting point": "276 to 284 °C"}, {"smiles": "Cc1c(S(=O)(=O)Nc2ccc3[nH]cc(CCN4CCCC4)c3c2)sc2ccc(Cl)cc12", "melting point": "201 to 203 °C"}, {"smiles": "O=S(=O)(Nc1ccc2c(ccn2CCCN2CCCCC2)c1)c1ccc2ccccc2c1", "melting point": "92 to 108 °C"}, {"smiles": "Cl.O=C(CN1CCC(N2C(=O)OCc3cc(Cl)ccc32)CC1)Nc1ccc(C(F)(F)F)cc1", "melting point": "284 to 285 °C"}, {"smiles": "O=S(=O)(Nc1ccc2[nH]cc(CCN3CCCC3)c2c1)c1cccc2ccccc12", "melting point": "212 to 214 °C"}, {"smiles": "Cl.O=C(CN1CCC(N2C(=O)OCc3ccccc32)CC1)Nc1ccccc1", "melting point": "262 to 272 °C"}, {"smiles": "O=S(=O)(Nc1ccc2[nH]cc(CCN3CCCC3)c2c1)c1ccc2ccccc2c1", "melting point": "180 to 182 °C"}, {"smiles": "Cc1cccc2c1N(C1CCN(CC(=O)Nc3ccc(Cl)cc3)CC1)C(=O)OC2.Cl", "melting point": "245 to 253 °C"}, {"smiles": "CCCN(CCC)CCc1c[nH]c2ccc(NS(=O)(=O)c3ccc4ccccc4c3)cc12", "melting point": "58 to 64 °C (dec.)"}, {"smiles": "CN(C)CCc1c[nH]c2ccc(NS(=O)(=O)c3cccc4c(Cl)cccc34)cc12", "melting point": "201 to 203 °C"}, {"smiles": "Cc1cccc2c1N(C1CCN(CC(=O)Nc3ccc(C#N)cc3)CC1)C(=O)OC2.Cl", "melting point": "229 to 234 °C"}, {"smiles": "CN(C)CCc1c[nH]c2ccc(NS(=O)(=O)c3ccc4ccccc4c3)cc12", "melting point": "180 to 190 °C"}, {"smiles": "Cl.N#Cc1ccc(NC(=O)CN2CCC(N3C(=O)OCc4cc(Cl)ccc43)CC2)cc1", "melting point": "274 to 278 °C"}, {"smiles": "O=S(=O)(Nc1ccc2[nH]cc(CCN3CCOCC3)c2c1)c1cccc2cccnc12", "melting point": "234 to 235 °C"}, {"smiles": "Cc1cccc2c1N(C1CCN(CC(=O)Nc3ccc(Oc4ccccc4)cc3)CC1)C(=O)OC2.Cl", "melting point": "162 to 167 °C"}, {"smiles": "CN1CCN(CCc2c[nH]c3ccc(NS(=O)(=O)c4ccc5ccccc5c4)cc23)CC1", "melting point": "129 to 131 °C"}, {"smiles": "Cl.O=C(CN1CCC(N2C(=O)OCc3cc(Cl)ccc32)CC1)Nc1ccc(Oc2ccccc2)cc1", "melting point": "262 to 267 °C"}, {"smiles": "Cc1ccc2c(c1)COC(=O)N2C1CCN(CC(=O)Nc2ccccc2Cl)CC1", "melting point": "146 to 148 °C"}, {"smiles": "Cc1ccc2c(c1)COC(=O)N2C1CCN(CC(=O)Nc2ccccc2C(F)(F)F)CC1", "melting point": "169 to 173 °C"}, {"smiles": "CN(C)CCn1ccc2cc(NS(=O)(=O)c3ccccc3)ccc21", "melting point": "139 to 141 °C"}, {"smiles": "Cc1ccc2c(c1)COC(=O)N2C1CCN(CC(=O)Nc2ccccc2)CC1", "melting point": "154 to 157 °C"}, {"smiles": "Cc1cccc2c1N(C1CCN(CC(=O)Nc3ccc(C4CCCCC4)cc3)CC1)C(=O)OC2.Cl", "melting point": "249 to 253 °C"}, {"smiles": "Cl.O=C(CN1CCC(N2C(=O)OCc3cc(Cl)ccc32)CC1)Nc1ccc(C2CCCCC2)cc1", "melting point": "249 to 256 °C"}, {"smiles": "Cl.O=C(CN1CCC(N2C(=O)OCc3ccccc32)CC1)Nc1ccccc1C(=O)c1ccccc1", "melting point": "211 to 216 °C"}, {"smiles": "Cc1cccc2c1N(C1CCN(CC(=O)Nc3ccccc3C(=O)c3ccccc3)CC1)C(=O)OC2.Cl", "melting point": "168 to 176 °C"}, {"smiles": "Cl.O=C(CN1CCC(N2C(=O)OCc3cc(Cl)ccc32)CC1)Nc1ccccc1C(=O)c1ccccc1", "melting point": "167 to 178 °C"}, {"smiles": "Cc1ccc2c(c1)COC(=O)N2C1CCN(CC(=O)Nc2ccccc2C(=O)c2ccccc2)CC1", "melting point": "167 to 170 °C"}, {"smiles": "Cc1ccc2c(c1)COC(=O)N2C1CCN(CC(=O)Nc2ccc(Oc3ccccc3)cc2)CC1.Cl", "melting point": "234 to 237 °C"}, {"smiles": "Cl.O=C(CN1CCC(N2C(=O)OCc3ccccc32)CC1)Nc1ccc2c(c1)-c1ccccc1C2O", "note": "(centres unmarked)", "melting point": "270 to 273 °C"}, {"smiles": "Cl.O=C(CN1CCC(N2C(=O)OCc3cc(Cl)ccc32)CC1)Nc1ccc2c(c1)C(=O)c1ccccc1-2", "melting point": "> 300 °C (dec.)"}, {"smiles": "Cc1cccc2c1N(C1CCN(CC(=O)Nc3ccc4c(c3)C(=O)c3ccccc3-4)CC1)C(=O)OC2.Cl", "melting point": "> 300 °C (dec.)"}, {"smiles": "Cl.O=C(CN1CCC(N2C(=O)OCc3cc(Cl)ccc32)CC1)Nc1ccc2c(c1)C(O)c1ccccc1-2", "note": "(centres unmarked)", "melting point": "286 to 289 °C"}, {"smiles": "Cc1ccc2c(c1)COC(=O)N2C1CCN(CC(=O)Nc2ccc3c(c2)C(O)c2ccccc2-3)CC1.Cl", "note": "(centres unmarked)", "melting point": "196 to 199 °C"}, {"smiles": "Cc1cccc2c1N(C1CCN(CC(=O)Nc3ccc4c(c3)C(O)c3ccccc3-4)CC1)C(=O)OC2.Cl", "note": "(centres unmarked)", "melting point": "283 to 285 °C"}, {"smiles": "Cc1ccc2c(c1)COC(=O)N2C1CCN(CC(=O)Nc2ccc3c(c2)-c2ccccc2C3O)CC1.Cl", "note": "(centres unmarked)", "melting point": "238 to 241 °C"}, {"smiles": "Cl.O=C(CN1CCC(N2C(=O)OCc3ccccc32)CC1)Nc1cccc2c1-c1ccccc1C2=O", "melting point": "270 to 273 °C"}, {"smiles": "O=C(CN1CCC(N2C(=O)OCc3ccc(Cl)cc32)CC1)Nc1ccc2oc3ccccc3c2c1", "melting point": "237 °C"}, {"smiles": "O=C(CN1CCC(N2C(=O)OCc3cc(F)ccc32)CC1)Nc1ccc2c(c1)-c1ccccc1C2=O", "melting point": "237 °C"}, {"smiles": "Cc1cccc2c1COC(=O)N2C1CCN(CC(=O)Nc2ccc3[nH]c4ccccc4c3c2)CC1", "melting point": "213 °C"}, {"smiles": "O=C(CN1CCC(N2C(=O)OCc3c(F)cccc32)CC1)Nc1ccc2[nH]c3ccccc3c2c1", "melting point": "195 °C"}, {"smiles": "Cc1ccc2c(c1)N(C1CCN(CC(=O)Nc3ccc4c(c3)-c3ccccc3C4O)CC1)C(=O)OC2", "note": "(centres unmarked)", "melting point": "136 °C"}, {"smiles": "Cc1cccc2c1COC(=O)N2C1CCN(CC(=O)Nc2ccc3oc4ccccc4c3c2)CC1", "melting point": "204 °C"}, {"smiles": "O=C(CN1CCC(N2C(=O)OCc3ccccc32)CC1)Nc1cccc2c1-c1ccccc1C2O", "note": "(centres unmarked)", "melting point": "209 to 210 °C"}, {"smiles": "O=C1OCc2ccccc2N1C1CCN(S(=O)(=O)c2cccc(Cl)c2Cl)CC1", "melting point": "185 to 187 °C"}]}]}
